Results on 6 molecules are retold here after publication PMC10458444 (Viruses, 2023).

In series [1] the test system is SARS-CoV PsV. The series can be described thus: microbe, parasite or virus in culture. The format is cell-based. As to conditions: Severe acute respiratory syndrome coronavirus, 48 h, read-out: IC50, inhibition of SARS-CoV PsV infection.
Series [2] relates to SARS-CoV-2 (D614) PsV. The series can be described thus: microbe, parasite or virus in culture. The series is classed as cell-based. As to conditions: for IC50: Severe acute respiratory syndrome coronavirus 2, 48 h, read-out: IC50, inhibition of SARS-CoV-2 (D614) PsV infection.
Series [3] relates to SARS-CoV-2 Omicron BA.4 PsV. The format is cell-based.
A short description of series [4]: Cytotoxicity assay (CCK-8). As to conditions: human, HEK293T-hACE2 cells.
For series [5], the system named is MERS-CoV PsV. The series can be described thus: microbe, parasite or virus in culture. The format is cell-based. As to conditions: Middle East respiratory syndrome-related coronavirus, 48 h, read-out: IC50, inhibition of MERS-CoV PsV infection.
Series [6] relates to SARS-CoV-2 PsV (D614). The series can be described thus: Time-of-addition assay. The format is cell-based. As to conditions: compound added 8 h after the addition of SARS-CoV-2 PsV.
Series [7] deals with SARS-CoV-2 spike-pseudovirus (D614). The arrangement: species or system K18-hACE2 transgenic mice. As to conditions: mouse, in vivo.
Series [8] addresses SARS-CoV-2 spike protein (Severe acute respiratory syndrome coronavirus 2, UniProt P0DTC2). The format is cell-based. As to conditions: co-incubated with PsV 1 h, HEK293T-hACE2 cells 12 h, Western blotting.

Structures can show the parent of a compound that is named as a salt.

In the case of `CC(=O)c1ccc2c(c1)N(CCCN(C)C)c1ccccc1S2` [Acepromazine maleate, acepromazine maleate], the values for the IC50 in series [1], in series [2] and in series [5] were 1390 nM, 1820 ± 230 nM and 1580 nM, respectively. In addition, in series [2], the “SI, selectivity index = CC50/IC50” value is 51.179. Also, in series [3], the “inhibitory activity in primary screening against Omicron (BA.4) PsV” value is given as “significant inhibitory activities”. Further, the CC50 at 48 h in series [4] came to 93300 ± 11500 nM.
`CC(CN(C)C)CN1c2ccccc2Sc2ccccc21` (stereo not drawn) [Alimemazine hemitartrate, alimemazine hemitartrate]: the IC50 in series [1] is 356 nM; in series [2], 477 ± 124 nM; in series [5], 1220 nM. For the same molecule, in series [2], the “SI, selectivity index = CC50/IC50” value is 111.929. The molecule also displayed a CC50 at 48 h in series [4] of 53400 ± 10900 nM.
Take `CCCCCCCCCC(=O)OCCN1CCN(CCCN2c3ccccc3Sc3ccc(C(F)(F)F)cc32)CC1` [Fluphenazine decanoate, fluphenazine decanoate]: the IC50 in series [1] stood at 3960 nM; in series [2], 3900 ± 1090 nM; in series [5], 2640 nM. Further, the “SI, selectivity index = CC50/IC50” value in series [2] was 15.775. This molecule yielded a CC50 at 48 h in series [4] of 61600 ± 28800 nM.
For `OCCN1CCN(CCCN2c3ccccc3Sc3ccc(Cl)cc32)CC1` [Perphenazine, perphenazine], the IC50 in series [1] is 1160 nM; in series [2], 831 ± 120 nM; in series [5], 1280 nM. For the same molecule, the “SI, selectivity index = CC50/IC50” value in series [2] is given as 21.805. Further, in series [3], the “inhibitory activity in primary screening against Omicron (BA.4) PsV” value is “significant inhibitory activities”. Also, half-maximal cytotoxicity in series [4] (CC50 at 48 h) was put at 18100 ± 1450 nM.
Consider `CN1CCN(CCCN2c3ccccc3Sc3ccc(Cl)cc32)CC1` [Prochlorperazine maleate, prochlorperazine maleate], for which the “inhibitory activity, time of addition” value in series [6] was “about 20%”. Moreover, in series [7], the “infection, luciferase gene expression in lung tissues (RT-qPCR)” value is “significantly inhibited”; the “viral load, HIV-1 Gag p55 and p24 protein levels in lung” value is listed as “significant reduction in the viral load”. This molecule also yielded a CC50 at 48 h in series [4] of 85200 ± 13900 nM.
As to teicoplanin, the “effect on cleavage of S protein in cells (full-length S protein level)” value in series [8] is recorded as “prevented the cleavage of S protein”.
